Laboratory results from patent CN101125142A, “青蒿素在制备抗肿瘤多药耐药药物中的应用” (DONGZHIMEN HOSPITAL AFFILIATED TO BEIJING UNIVERSITY OF …, priority 2007, dated 2008).
Where “and” joins values, the source holds several entries; their conditions need not be identical. Equal entries are not always repeated. Entries after “also recorded” stand apart in the source; their conditions may differ. Where two headings read alike, the source gives them in different places.

Tests used:
[1] = test system: KBV200 cells (KBV200细胞); conditions: KBV200 cell line; cited from earlier work
[2] = test system: KBV200 cells (KBV200细胞); assay: Reversal of resistance: MTT growth inhibition of KBV200 cells by agent combined with VCR; type: cell-based, human; conditions: for inhibition rate of KBV200 cells on combination with VCR: VCR concentration constant, three agent concentrations; for reversal of vincristine resistance / sensitisation of KBV200 to VCR: agent combined with VCR
[3] = test system: KBV200 cells (KBV200细胞); assay: MTT cytotoxicity test: growth inhibition of KBV200 cells by single agents; type: cell-based, human; conditions: for IC50: KBv200; for inhibitory effect on tumour cells compared with another agent: artesunate versus artemisinin, dihydroartemisinin versus artesunate
[4] = test system: tumour multidrug resistance (肿瘤多药耐药); conditions: background; cited from earlier work
[5] = Homo sapiens, mass concentration in brackets beside the μmol/l value
[6] = Homo sapiens, single agent, 72 h (discussion)

## CC(=O)O[C@H]1C(=O)[C@@]2(C)[C@H]([C@H](OC(=O)c3ccccc3)[C@]3(O)C[C@H](OC(=O)[C@H](O)[C@@H](NC(=O)c4ccccc4)c4ccccc4)C(C)=C1C3(C)C)[C@]1(OC(C)=O)CO[C@@H]1C[C@@H]2O [紫杉醇]
[1]
  fold resistance: ~156 fold

## C[C@H]1[C@H](OC(=O)CCC(=O)O)O[C@@H]2O[C@@]3(C)CC[C@H]4[C@H](C)CC[C@@H]1[C@@]24OO3 [青蒿琥酯]
[2]
  inhibition rate of KBV200 cells on combination with VCR: 略有提高
  reversal of vincristine resistance / sensitisation of KBV200 to VCR: 有一定的增敏作用
[2]; artesunate 0.078 umol/l with VCR
  reversal fold (RI): 1.19
[2]; artesunate 0.156 umol/l with VCR
  reversal fold (RI): 1.79
[2]; artesunate 0.313 umol/l with VCR
  reversal fold (RI): 2.57
[3]
  selective killing of KBV200 cells: 有选择性杀伤作用
  inhibitory effect on tumour cells compared with another agent: 比青蒿素显著增强
[3]; [5]
  IC50: 0.563 µg/mL
[3]; [6]
  IC50: 1.47 µM
[3]; artesunate 0.0156 μmol/l (so in the source), 72 h
  inhibition rate (IR): 9.520±4.910%
[3]; artesunate 0.0390 μmol/l, 72 h
  inhibition rate (IR): 1.640±3.520%
[3]; artesunate 0.156 umol/l
  inhibition rate: < 20%
[3]; artesunate 0.3130 μmol/l, 72 h
  inhibition rate (IR): < 20% and 18.41±4.420%
[3]; artesunate 0.6250 μmol/l, 72 h
  inhibition rate (IR): 35.25±10.52%
[3]; artesunate 1.2500 μmol/l, 72 h
  inhibition rate (IR): 47.56±1.250%
[3]; artesunate 2.5000 μmol/l, 72 h
  inhibition rate (IR): 57.67±1.110%
[3]; artesunate 5.0000 μmol/l, 72 h
  inhibition rate (IR): 69.85±6.900%
[3]; artesunate 10.000 μmol/l, 72 h
  inhibition rate (IR): 84.47±0.600%
[3]; artesunate 20.000 μmol/l, 72 h
  inhibition rate (IR): 95.02±6.560%
[3]; artesunate above 1.466 umol/l
  inhibition rate: > 50%
[3]; artesunate below 0.039 umol/l
  inhibitory effect on KBV200 cells: 几乎无抑制效应
[3]; artesunate below 0.313 umol/l
  inhibition rate: < 20%
[3]; artesunate below 1.25 umol/l
  inhibitory effect on KBV200 cells: 抑制效应并不明显
[3]; overall statement
  inhibitory effect on KBV200 cells: 大浓度具有一定的抑制KBV200细胞增殖效应; also recorded: 均有一定抑制效应

## C[C@@H]1CC[C@H]2[C@@H](C)C(=O)O[C@@H]3O[C@@]4(C)CC[C@@H]1[C@]32OO4 [青蒿素]
[2]
  inhibition rate of KBV200 cells on combination with VCR: 明显提高
  reversal of vincristine resistance / sensitisation of KBV200 to VCR: 可部分逆转; also recorded: 具有不同的逆转KBV200耐药效应
[2]; artemisinin 10 umol/l with VCR, RI = IC50 VCR / IC50 VCR+agent
  reversal fold (RI): 2.29
[2]; artemisinin 20 umol/l with VCR
  reversal fold (RI): 2.68
[2]; artemisinin 40 umol/l with VCR
  reversal fold (RI): 3.0
[3]; [5]
  IC50: 48.6 µg/mL
[3]; [6]
  IC50: 172 µM
[3]; artemisinin 2.50 μmol/l, 72 h
  inhibition rate (IR): 1.140±2.85%
[3]; artemisinin 5.00 μmol/l, 72 h
  inhibition rate (IR): 2.690±4.36%
[3]; artemisinin 20.0 μmol/l, 72 h
  inhibition rate (IR): < 20% and 12.70±2.53%
[3]; artemisinin 40.0 μmol/l, 72 h
  inhibition rate (IR): < 20% and 19.22±5.59%
[3]; artemisinin 80.0 μmol/l, 72 h
  inhibition rate (IR): 28.47±2.73%
[3]; artemisinin 160 μmol/l, 72 h
  inhibition rate (IR): 43.57±5.20%
[3]; artemisinin above 172.4 umol/l
  inhibition rate: > 50%
[3]; artemisinin below 2.50 umol/l
  inhibitory effect on KBV200 cells: 几乎无抑制效应
[3]; artemisinin below 40 umol/l
  inhibition rate: < 20%
[3]; artemisinin below 80 umol/l
  inhibition rate: < 30%
[3]; artemisinin below 160 umol/l
  inhibitory effect on KBV200 cells: 抑制效应并不明显
[3]; overall statement
  inhibitory effect on KBV200 cells: 大浓度具有一定的抑制KBV200细胞增殖效应; also recorded: 均有一定抑制效应

## COc1cc2c(c(OC)c1OC)-c1ccc(OC)c(=O)cc1[C@@H](NC(C)=O)CC2 [秋水仙素]
[1]
  fold resistance: ~15 fold

## COc1cc([C@@H]2c3cc4c(cc3[C@@H](O[C@@H]3O[C@@H]5CO[C@@H](C)O[C@H]5[C@H](O)[C@H]3O)[C@H]3COC(=O)[C@H]23)OCO4)cc(OC)c1O [鬼臼乙叉甙]
[1]
  resistance: 耐药性较低

## COc1cc2c(cc1OC)[C@@H]1Cc3ccc(OC)c(OC)c3CN1CC2 [左旋四氢马汀]
[4]
  reversal fold: 8.2-13.0

## COc1ccc2cc1Oc1ccc(cc1)C[C@H]1c3cc(c(OC)cc3CCN1C)Oc1c(OC)c(OC)cc3c1[C@H](C2)N(C)CC3 [粉防已碱]
[4]
  reversal fold: 8.2-13.0

## CC[C@]1(O)C[C@H]2CN(CCc3c([nH]c4ccccc34)[C@@](C(=O)OC)(c3cc4c(cc3OC)N(C=O)[C@H]3[C@@](O)(C(=O)OC)[C@H](OC(C)=O)[C@]5(CC)C=CCN6CC[C@]43[C@@H]65)C2)C1 [VCR, 长春新碱]
[1]
  fold resistance: ~175 fold
[3]
  inhibition rate: < 50%
[3]; Homo sapiens, KBv200, 72 h, VCR 0.125 μg/ml, 72 h, read-out: inhibition rate (IR)
  inhibition at 0.125 µg/mL: 6.51 ± 2.59%
[3]; Homo sapiens, KBv200, 72 h, VCR 0.250 μg/ml, 72 h, read-out: inhibition rate (IR)
  inhibition at 0.25 µg/mL: 9.06 ± 3.13%
[3]; Homo sapiens, KBv200, 72 h, VCR 0.500 μg/ml, 72 h, read-out: inhibition rate (IR)
  inhibition at 0.5 µg/mL: 13.9 ± 3.54%
[3]; Homo sapiens, KBv200, 72 h, VCR 1.000 μg/ml, 72 h, read-out: inhibition rate (IR)
  inhibition at 1 µg/mL: 25.6 ± 1.71%
[3]; Homo sapiens, KBv200, 72 h, VCR 2.000 μg/ml, 72 h, read-out: inhibition rate (IR)
  inhibition at 2 µg/mL: 66.3 ± 0.01%
[3]; Homo sapiens, VCR alone, 72 h
  IC50: 1.58 ± 1.22 µg/mL
[3]; VCR 0.500 μg/ml, 72 h
  inhibition rate (IR): 13.96±3.54%
[3]; VCR 1.000 μg/ml, 72 h
  inhibition rate (IR): 25.65±1.71%
[3]; VCR 2.000 μg/ml, 72 h
  inhibition rate (IR): 66.31±0.01%
[3]; VCR above 1.58 μg/ml
  inhibitory effect on KBV200 cells: 具有较为明显的抑制效应
[3]; VCR below 1 μg/ml
  inhibitory effect on KBV200 cells: 抑制效应并不明显

## COC(=O)C[C@](O)(CCCC(C)(C)O)C(=O)O[C@@H]1C(OC)=C[C@]23CCCN2CCc2cc4c(cc2[C@H]13)OCO4 [高三尖杉酯]
[1]
  resistance: 耐药性较低

## COc1cccc2c1C(=O)c1c(O)c3c(c(O)c1C2=O)C[C@@](O)(C(=O)CO)C[C@@H]3O[C@H]1C[C@H](N)[C@H](O)[C@H](C)O1 [阿霉素]
[1]
  fold resistance: ~15 fold

## COc1cc2c(cc1OC)[C@@H](Cc1ccc(Oc3cc(C[C@@H]4c5cc(OC)c(OC)cc5CCN4C)ccc3O)cc1)N(C)CC2 [蝙蝠葛碱]
[4]
  reversal fold: 8.2-13.0

## O=c1[nH]cc(F)c(=O)[nH]1 [5-氟脲嘧啶]
[1]
  resistance: 耐药性较低

## CC1CCC2C(C)C(O)OC3OC4(C)CCC1C32OO4 (stereo not drawn) [二氢青蒿素]
[2]
  inhibition rate of KBV200 cells on combination with VCR: 略有提高
  reversal of vincristine resistance / sensitisation of KBV200 to VCR: 有一定的增敏作用
[2]; dihydroartemisinin 0.625 umol/l with VCR
  reversal fold (RI): 1.35
[2]; dihydroartemisinin 1.25 umol/l with VCR
  reversal fold (RI): 1.515
[2]; dihydroartemisinin 2.5 umol/l with VCR
  reversal fold (RI): 1.74
[3]; [5]
  IC50: 3.18 µg/mL
[3]; [6]
  IC50: 11.2 µM
[3]
  inhibitory effect on tumour cells compared with another agent: 较青蒿琥酯次之
[3]; dihydroartemisinin 0.156 μmol/l, 72 h
  inhibition rate (IR): 0.680±0.84%
[3]; dihydroartemisinin 0.313 μmol/l, 72 h
  inhibition rate (IR): 0.940±3.87%
[3]; dihydroartemisinin 1.250 μmol/l, 72 h
  inhibition rate (IR): < 20% and 10.00±3.31%
[3]; dihydroartemisinin 2.500 μmol/l, 72 h
  inhibition rate (IR): < 20% and 18.50±4.88%
[3]; dihydroartemisinin 5.000 μmol/l, 72 h
  inhibition rate (IR): 32.30±10.1%
[3]; dihydroartemisinin 10.00 μmol/l, 72 h
  inhibition rate (IR): 48.69±6.53%
[3]; dihydroartemisinin 20.00 μmol/l, 72 h
  inhibition rate (IR): 71.98±7.16%
[3]; dihydroartemisinin 40.00 μmol/l, 72 h
  inhibition rate (IR): 89.99±4.39%
[3]; dihydroartemisinin above 11.16 umol/l
  inhibition rate: > 50%
[3]; dihydroartemisinin below 0.313 umol/l
  inhibitory effect on KBV200 cells: 几乎无抑制效应
[3]; dihydroartemisinin below 2.5 umol/l
  inhibition rate: < 20%
[3]; dihydroartemisinin below 10 umol/l
  inhibitory effect on KBV200 cells: 抑制效应并不明显
[3]; overall statement
  inhibitory effect on KBV200 cells: 大浓度具有一定的抑制KBV200细胞增殖效应; also recorded: 均有一定抑制效应

## 人参皂甙Rb1
[4]
  reversal fold: 8.2-13.0
